The results in this text go back to patent US10906924B2, “Modulators of indoleamine 2,3-dioxygenase” (GLAXOSMITHKLINE INTELLECTUAL PROPERTY DEVELOPMENT LIMITED, priority 2017, dated 2021).

The target of this assay is indoleamine 2,3-dioxygenase (IDO1) (Homo sapiens, UniProt P14902). Briefly: PBMC IDO1 assay (kynurenine by mass spectrometry). The conditions noted are these: human PBMC stimulated with IFN-γ and LPS, 2 days incubation, kynurenine detected by mass spectrometry; read-out: IDO1 PBMC pIC50 (converted). The class given is cell-based.

Where a name gives a salt, the structure may show the parent alone.

indoleamine 2,3-dioxygenase (IDO1), sequence (P14902 whole entry): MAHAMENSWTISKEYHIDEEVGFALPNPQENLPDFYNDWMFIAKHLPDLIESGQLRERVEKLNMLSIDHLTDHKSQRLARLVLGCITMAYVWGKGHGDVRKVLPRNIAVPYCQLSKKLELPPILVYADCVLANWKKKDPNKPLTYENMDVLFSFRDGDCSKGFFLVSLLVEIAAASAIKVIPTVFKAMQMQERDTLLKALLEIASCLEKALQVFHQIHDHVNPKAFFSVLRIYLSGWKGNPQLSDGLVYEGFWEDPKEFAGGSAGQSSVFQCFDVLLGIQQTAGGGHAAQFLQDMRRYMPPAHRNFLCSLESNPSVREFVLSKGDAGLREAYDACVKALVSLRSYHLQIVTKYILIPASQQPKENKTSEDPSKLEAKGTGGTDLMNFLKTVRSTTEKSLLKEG

`COC(=O)N1CCC2(CC1)C[C@H](NC(=O)c1cccc3cn[nH]c13)c1ccccc1O2` [Example 54, methyl (S)-4-(1H-indazole-7-carboxamido)spiro[chromane-2,4′-piperidine]-1′-carboxylate]: the IC50 was 20 nM.

For `CCOC(=O)N1CCC2(CC1)C[C@H](NC(=O)c1cccc3cn(COP(=O)(O)O)nc13)c1ccccc1O2` [Example 55, 2-amino-2-(hydroxymethyl)propane-1,3-diol hemi((S)-(7-((1′-(ethoxycarbonyl)spiro[chroman-2,4′-piperidin]-4-yl)carbamoyl)-2H-indazol-2-yl)methyl phosphate)], the IC50 was 126 nM. The figure for `CCOC(=O)N1CCC2(CC1)C[C@H](NC(=O)c1cccc3cn(COP(=O)(O)O)nc13)c1nc(OC)ccc1O2` [Example 56, ethyl (S)-6′-methoxy-4′-(2-((phosphonooxy)methyl)-2H-indazole-7-carboxamido)-3′,4′-dihydrospiro[piperidine-4,2′-pyrano[3,2-b]pyridine]-1-carboxylate, bis 2-amino-2-(hydroxymethyl)-1,3-propanediol salt] is 79.4 nM.

Regarding `COC(=O)N1CCC2(CC1)C[C@H](NC(=O)c1cccc3cn[nH]c13)c1nc(OC)ccc1O2` [Example 57, methyl (S)-4′-(1H-indazole-7-carboxamido)-6′-methoxy-3′,4′-dihydrospiro[piperidine-4,2′-pyrano[3,2-b]pyridine]-1-carboxylate], the IC50 is 10 nM.

Take `CCOC(=O)N1CCC2(CC1)C[C@H](NC(=O)c1cccc3cn(COP(=O)(O)O)nc13)c1cc(Br)ncc1O2` [Example 58, (S)-ethyl 6′-bromo-4′-(2-((phosphonooxy)methyl)-2H-indazole-7-carboxamido)-3′,4′-dihydrospiro[piperidine-4,2′-pyrano[2,3-c]pyridine]-1-carboxylate]: the IC50 is 501 nM. As for `CCOC(=O)N1CCC2(CC1)C[C@H](NC(=O)c1cccc3c(CO)n[nH]c13)c1cc(Br)ccc1O2` [Example 59, ethyl (S)-6-bromo-4-(3-(hydroxymethyl)-1H-indazole-7-carboxamido) spiro[chromane-2,4′-piperidine]-1′-carboxylate], the IC50 was 0.794 nM.

With `CCOC(=O)N1CCC2(CC1)C[C@H](NC(=O)c1cccc3c(COC(=O)CCC(=O)O)[nH]nc13)c1cc(Br)ccc1O2` [Example 60, (S)-4-((7-((6-bromo-1′-(ethoxycarbonyl)spiro[chromane-2,4′-piperidin]-4-yl)carbamoyl)-1H-indazol-3-yl)methoxy)-4-oxobutanoic acid], the IC50 is 1.26 nM.

Turning to `CCOC(=O)N1CCC2(CC1)C[C@H](NC(=O)c1cccc3c(COC(C)=O)[nH]nc13)c1cc(Br)ccc1O2` [Example 61, ethyl (S)-4-(3-(acetoxymethyl)-1H-indazole-7-carboxamido)-6-bromo spiro[chromane-2,4′-piperidine]-1′-carboxylate], the IC50 was 1.26 nM.
